Laboratory results reported in patent US8992982B2, “Formulation of indomethacin” (Iceutica Pty Ltd., priority 2009, dated 2015).

Tests used:
Assay type in all cases: in vivo, human
[1] = Phase 2 dental pain study: safety (TEAEs, vital signs); details: Safety population
Procedure: Efficacy was assessed during the 8 hours after Time 0. Safety was assessed by the incidence of treatment-emergent AEs (TEAEs) and changes in vital sign measurements.
The safety endpoints were the incidence of TEAEs and changes in vital sign measurements.
Protocol-specified safety data were provided in by-subject listings. The Medical Dictionary for Regulatory Activities (MedDRA) (version 11.0) was used to classify all AEs with respect to system organ class and preferred term. Adverse event summaries included only TEAEs, which were summarized by incidence, severity, and relationship to study drug for each treatment group. The Cochran-Mantel-Haenszel test was used to compare the rates of occurrence between the placebo and Indomethacin Nanoformulation Capsule groups for all TEAEs. A list of AEs leading to study discontinuation, along with the summaries described above, was also provided.
Vital sign measurements were summarized using descriptive statistics (mean, standard deviation [SD], median, minimum, and maximum) at each scheduled time point for each treatment group. Changes from Baseline for vital signs were calculated for each subject and summarized for each treatment group at each scheduled time point after Baseline. No formal statistical tests were performed.

[2] = system: pain after surgical removal of impacted third molars; assay: Phase 2 dental pain study: 2-stopwatch method (time to onset of analgesia, first perceptible and meaningful pain relief); details: ITT
Procedure: Subjects assessed their baseline pain intensity (VAS) before receiving study drug (predose, Time 0) and their pain intensity (VAS) and pain relief (5-point categorical scale) at 15, 30, and 45 minutes and 1, 1.5, 2, 3, 4, 5, 6, 7, and 8 hours after Time 0 and immediately before the first dose of rescue medication. The 2-stopwatch method was used to record the time to perceptible and time to meaningful pain relief, respectively. Acetaminophen (1000 mg) was permitted as the initial rescue medication. Subjects were encouraged to wait at least 60 minutes after receiving study drug before taking rescue medication. […] Other restrictions included the following: no alcohol use from 24 hours before surgery until discharge on Day 1; nothing by mouth (NPO) from midnight before surgery until 1 hour after surgery; clear liquids only from 1 hour after surgery until 1 hour after dosing; and advancement of diet 1 hour after dosing according to standard practice.
(§1) The secondary efficacy endpoints were as follows: • TOTPAR over 0 to 4 hours (TOTPAR-4) after Time 0 • Visual Analogue Scale (VAS) pain intensity difference (VASPID) at each scheduled time point after Time 0 • Time to onset of analgesia (measured as time to perceptible pain relief confirmed by meaningful pain relief) • VAS pain intensity score at each scheduled time point • VAS summed pain intensity difference (VASSPID) over 0 to 4 hours (VASSPID-4) and over 0 to 8 hours (VASSPID-8) after Time 0 • Pain relief score at each scheduled time point after Time 0 • Peak pain relief • Time to peak pain relief • Time to first perceptible pain relief • Time to meaningful pain relief • Proportion of subjects using rescue medication • Time to first use of rescue medication (duration of analgesia) • Patient's global evaluation of study drug Safety:
For each time-to-event endpoint, the Kaplan-Meier method was used to evaluate the treatment effect. Time to onset of analgesia (measured as time to perceptible pain relief confirmed by meaningful pain relief) was based on data collected using the 2-stopwatch method. […] A summary table provided the number of subjects analyzed, the number of subjects censored, estimates for the quartiles, and 95% confidence intervals (CIs) for the estimated median. P values from log-rank tests were also used to examine treatment effect. Cox proportional hazard models were used to explore potential covariates such as sex, baseline pain intensity, and surgical trauma rating, if appropriate.

[3] = system: pain after surgical removal of impacted third molars; assay: Phase 2 dental pain study: patient's global evaluation of study drug; details: 400 mg; ITT
Procedure: as §1
For ordinal secondary endpoints such as pain relief at each scheduled time point, peak pain relief, and global evaluation of study drug, descriptive summaries including the number and percentage of subjects within each category were provided for each treatment group. Nominal P values from Cochran-Mantel-Haenszel tests comparing the placebo group with other treatment groups were provided, but no formal statistical inferences were drawn on the basis of these tests.

SMILES: Cc1ccc(-c2cc(C(F)(F)F)nn2-c2ccc(S(N)(=O)=O)cc2)cc1 [Celecoxib]
- Subjects with ≧1 severe TEAE [1]: (5.9) %
- Subjects with ≧1 treatment-related TEAE [1]: (2.0) %
- Subjects who died ([1]; n): 0
- Subjects who discontinued due to a TEAE ([1]; n): 0
- Subjects with ≧1 SAE ([1]; n): 0
- Hazard ratio vs placebo, Cox proportional hazards model (time to first perceptible pain relief) ([2]; 400 mg): 1.7
- Hazard ratio vs placebo, Cox proportional hazards model (time to meaningful pain relief) ([2]; 400 mg): 3.2
- Time to first perceptible pain relief: subjects analyzed, % ([2]; 400 mg): (92.2) %
- Time to first perceptible pain relief: subjects censored, % ([2]; 400 mg): (7.8) %
- Time to meaningful pain relief: subjects analyzed, % ([2]; 400 mg): (68.6) %
- Time to meaningful pain relief: subjects analyzed, n ([2]; 400 mg): 35
- Time to meaningful pain relief: subjects censored, % ([2]; 400 mg): (31.4) %
- Time to meaningful pain relief: subjects censored, n ([2]; 400 mg): 16
- Time to onset of analgesia, Hazard ratio ([2]; Cox proportional hazards model, vs placebo): 4.4
- Time to onset of analgesia: subjects analyzed [2]: (68.6) %
- Time to first perceptible pain relief, Mean ([2]; Kaplan-Meier estimate, 400 mg): 0.9 h
- Time to first perceptible pain relief, Q25 ([2]; Kaplan-Meier estimate, 400 mg): 0.35 h
- Time to first perceptible pain relief, Q50 ([2]; Kaplan-Meier estimate, 400 mg): 0.60 h
- Time to first perceptible pain relief, Q75 ([2]; Kaplan-Meier estimate, 400 mg): 0.97 h
- Time to meaningful pain relief, Mean ([2]; Kaplan-Meier estimate, 400 mg): 2.6 h
- Time to meaningful pain relief, Q25 ([2]; Kaplan-Meier estimate, 400 mg): 0.75 h
- Time to meaningful pain relief, Q50 ([2]; Kaplan-Meier estimate, 400 mg): 1.33 h
- Time to meaningful pain relief, Q75 ([2]; Kaplan-Meier estimate, 400 mg): 4.27 h
- Time to onset of analgesia, Mean ([2]; Kaplan-Meier estimate): 0.9 h
- Time to onset of analgesia, Q25 ([2]; Kaplan-Meier estimate): 0.38 h
- Time to onset of analgesia, Q50 ([2]; Kaplan-Meier estimate): 0.72 h
- Time to onset of analgesia: subjects censored ([2]; right-censored at 8 hours): (31.4) %
- Patient's global evaluation of study drug: Excellent, % [3]: (15.7) %
- Patient's global evaluation of study drug: Fair, % [3]: (17.6) %
- Patient's global evaluation of study drug: Good, % [3]: (19.6) %
- Patient's global evaluation of study drug: Poor, % [3]: (11.8) %
- Patient's global evaluation of study drug: Very Good, % [3]: (35.3) %
